Assay results from patent publication US20100081702A1 (priority 2007, published 2010).

Tested on: concanavalin A (ConA)-induced mouse hepatitis models (T cell-dependent liver injury models)
Test: concanavalin A (ConA)-induced mouse hepatitis model, AST and ALT in serum
Protocol: Aspartate aminotransferase (AST) and alanine aminotransferase (ALT) in serum were measured as indices for liver injury in concanavalin A (ConA)-induced mouse hepatitis models used as T cell-dependent liver injury models. The inhibitory effects of compounds of the present invention on liver injury were studied.
A compound suspension was orally administered at a dose of 1 mg/kg to male BALE/c mice. 24 hours after the oral administration, ConA was intravenously administered at a dose of 20 mg/kg to the tails of the mice. 24 hours after the ConA administration, blood was collected from the mice, and AST and ALT in serum were measured.

Compound: COc1ccc(CCCC(=O)c2ccc(CC[C@@](C)(N)CO)n2C)cc1C [Compound 1]
- inhibitory effects on ALT level elevating effects (result in words, 1 mg/kg oral, ConA-induced mouse hepatitis): significant inhibitory effects
- AST level (mean ± S.E., IU/L) (serum, compound 1 mg/kg oral 24 hours before ConA 20 mg/kg intravenous, blood collected 24 hours after ConA, **P < 0.01, *P < 0.05 vs. solvent (solvent 236.9 ± 52.6, negative control 105.2 ± 26.1)): 97.4 ± 9.1** IU/L
- ALT level (mean ± S.E., IU/L) (serum, compound 1 mg/kg oral 24 hours before ConA 20 mg/kg intravenous, blood collected 24 hours after ConA, **P <0.01, *P <0.05 vs. solvent (solvent 454.1 ± 137.8, negative control 76.4 ± 14.2)): 101.6 ± 19.6** IU/L
